The subject of test [1] is p-SLP-76 (Ser376) in Jurkat cells. Description: pSLP76 Cellular Assay (AlphaLISA SureFire Ultra p-SLP-76 (Ser376), anti-CD3 activated Jurkat cells). The class given is cell-based. To be noted: pSLP76 (Ser376) AlphaLISA, anti-CD3 activated Jurkat cells, read-out: Cellular Potency. Put shortly:
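Jurkat cells, serum-starved overnight in Opti-MEM then in HBSS, preincubated 1 h at 37 °C with 22-point 2-fold compound dilutions, then stimulated with anti-CD3 (0.025 mg/ml added solution) for 45 min. Lysate p-SLP-76 (Ser376) measured by AlphaLISA at 570 nm; IC50 from 4-parameter logistic fit.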
Background: Bead proximity is the source of the signal in Alpha formats.

In a further test the target is HPK1 (Homo sapiens, UniProt Q92918). Description: HPK1 Biochemical Assay (ADP-Glo luminescence; low ATP 10 μM or high ATP 200 μM). The settings on record: HPK1 ADP-Glo assay. (In general: ADP-Glo first removes unused ATP, then detects ADP through luciferase.)
HPK1, sequence (Q92918 whole entry, species assumed): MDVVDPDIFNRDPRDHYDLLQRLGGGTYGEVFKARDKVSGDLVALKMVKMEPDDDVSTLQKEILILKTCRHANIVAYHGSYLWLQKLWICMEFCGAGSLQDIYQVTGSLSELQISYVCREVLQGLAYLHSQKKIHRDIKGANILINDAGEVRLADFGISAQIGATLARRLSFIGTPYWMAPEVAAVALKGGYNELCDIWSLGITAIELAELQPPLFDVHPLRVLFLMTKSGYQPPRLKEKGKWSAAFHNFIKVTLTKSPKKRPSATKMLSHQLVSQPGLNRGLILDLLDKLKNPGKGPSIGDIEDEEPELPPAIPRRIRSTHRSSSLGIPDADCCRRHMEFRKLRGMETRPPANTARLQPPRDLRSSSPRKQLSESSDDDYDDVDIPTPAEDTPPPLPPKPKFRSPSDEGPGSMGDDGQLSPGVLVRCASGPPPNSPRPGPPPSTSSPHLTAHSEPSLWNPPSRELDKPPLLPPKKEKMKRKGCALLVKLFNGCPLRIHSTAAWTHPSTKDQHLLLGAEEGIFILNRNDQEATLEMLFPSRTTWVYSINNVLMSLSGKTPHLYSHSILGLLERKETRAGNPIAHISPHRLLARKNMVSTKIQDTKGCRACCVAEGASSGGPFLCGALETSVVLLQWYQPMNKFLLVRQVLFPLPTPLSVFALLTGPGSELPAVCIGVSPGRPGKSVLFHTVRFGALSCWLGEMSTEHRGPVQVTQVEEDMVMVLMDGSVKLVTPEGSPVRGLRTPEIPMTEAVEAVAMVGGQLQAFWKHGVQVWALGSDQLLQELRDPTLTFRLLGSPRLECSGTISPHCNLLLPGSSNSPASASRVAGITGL
The mark [2] stands for this setting: low ATP (10 μM ATP, 2 nM HPK1), read-out: Biochemical Potency (low ATP).
The mark [3] stands for this setting: high ATP (200 μM ATP, 5 nM HPK1), read-out: Biochemical Potency (high ATP).

The structures appear in SMILES notation. Where two headings read alike, the source gives them in different places. Some results are limits rather than exact numbers.

Turning to `Cc1cccnc1-c1nc2cc(Nc3ccc(C4CCOCC4)c(N4C[C@@H]5C[C@H]4CN5)n3)ncc2s1` [Example 432], the IC50 (in test [1] (Homo sapiens); at HPK1 (setting [2])) was < 100 nM each time.

On to `Cc1cccnc1-c1nc2cc(Nc3ccc(C4CCOCC4)c(N4C[C@@H]5C[C@H]4CN5C)n3)ncc2s1` [Example 433], for which the IC50 (in test [1] (Homo sapiens); on HPK1 (setting [2])) was < 100 nM throughout.

With `Cc1cccnc1-c1nc2cc(Nc3cc(-c4cnccc4C#N)cc(N4C[C@@H]5C[C@H]4CN5C)n3)ncc2s1` [Example 434], the figures for the IC50 (in test [1] (Homo sapiens); at HPK1 (setting [3])) were 100 to 1000 nM and < 100 nM, respectively.

Regarding `Cc1cccnc1-c1nc2cc(Nc3cc(C(C)C)nc(N4C[C@@H]5C[C@H]4CN5)n3)ncc2s1` [Example 435], the figures for the IC50 (in test [1] (Homo sapiens); at HPK1 (setting [3])) were 100 to 1000 nM and < 100 nM, respectively.

On to `Cc1cccnc1-c1nc2cc(Nc3cc(C4CC4)nc(N4C[C@@H]5C[C@H]4CN5C)n3)ncc2s1` [Example 436], for which the figures for the IC50 (in test [1] (Homo sapiens); on HPK1 (setting [3])) were 100 to 1000 nM and < 100 nM, respectively.

As to `CN1C[C@@H]2C[C@H]1CN2c1nc(Nc2cc3nc(-c4cncc(C(C)(C)O)c4)sc3cn2)cc(C2CCOCC2)n1` [Example 438], the figures for the IC50 (in test [1] (Homo sapiens); at HPK1 (setting [2])) were 100 to 1000 nM and < 100 nM, respectively.

As for `CN1C[C@@H]2C[C@H]1CN2c1nc(Nc2cc3nc(-c4cccc(C(C)(C)O)c4)sc3cn2)cc(C2CCOCC2)n1` [Example 440], the IC50 (in test [1] (Homo sapiens); at HPK1 (setting [3]); at HPK1 (setting [2])) was < 100 nM each time.

`CS(=O)(=O)c1cccc(-c2nc3cc(Nc4cc(C5CCOCC5)nc(N5C[C@@H]6C[C@H]5CN6)n4)ncc3s2)c1` [Example 443]: the IC50 (in test [1] (Homo sapiens); on HPK1 (setting [3]); on HPK1 (setting [2])) was < 100 nM throughout.

For the molecule `Cc1cccnc1-c1nc2cc(Nc3cc(C4CCOCC4)nc(N4C[C@@H]5C[C@H]4CN5)n3)ncc2s1` [Example 444], the IC50 (in test [1] (Homo sapiens); on HPK1 (setting [2])) was < 100 nM throughout.

With `Cc1cc(Nc2cc3nc(-c4ccnc(N5C[C@@H](C)O[C@@H](C)C5)c4)sc3cn2)nc(N2C[C@@H]3C[C@H]2CN3CCO)n1` [Example 445], the IC50 in test [1] (Homo sapiens) was 100 to 1000 nM; on HPK1 (setting [3]), < 100 nM.

Consider `Cc1cc(Nc2cc3nc(-c4ccnc(N5CCO[C@@H](C)C5)c4)sc3cn2)nc(N2C[C@@H]3C[C@H]2CN3CCO)n1` [Example 446], for which the IC50 in test [1] (Homo sapiens) is 100 to 1000 nM; at HPK1 (setting [3]) it was < 100 nM.

Take `Cc1cc(Nc2cc3nc(-c4ccnc(N5C6CCC5COC6)c4)sc3cn2)nc(N2C[C@@H]3C[C@H]2CN3CCO)n1` [Example 447]: the IC50 (in test [1] (Homo sapiens); on HPK1 (setting [3])) was < 100 nM in each case.

Consider `Cc1cc(Nc2cc3nc(-c4ccnc(N5CC6CCC(C5)O6)c4)sc3cn2)nc(N2C[C@@H]3C[C@H]2CN3CCO)n1` [Example 448], for which the figures for the IC50 (in test [1] (Homo sapiens); on HPK1 (setting [3])) were 100 to 1000 nM and < 100 nM, respectively.

Take `Cc1cc(Nc2cc3nc(-c4ccnc(N5CCCOCC5)c4)sc3cn2)nc(N2C[C@@H]3C[C@H]2CN3CCO)n1` [Example 449]: the IC50 in test [1] (Homo sapiens) was 100 to 1000 nM; on HPK1 (setting [3]), < 100 nM.

As to `Cc1cc(Nc2cc3nc(-c4ccnc(N5CCOC[C@H]5C)c4)sc3cn2)nc(N2C[C@@H]3C[C@H]2CN3CCO)n1` [Example 450], the IC50 (in test [1] (Homo sapiens); at HPK1 (setting [3])) was < 100 nM each time.

Take `Cc1cc(Nc2cc3nc(-c4ccnc(N5CCO[C@H](C)C5)c4)sc3cn2)nc(N2C[C@@H]3C[C@H]2CN3CCO)n1` [Example 451]: the IC50 is 100 to 1000 nM in test [1] (Homo sapiens) and < 100 nM at HPK1 (setting [3]).

For `Cc1cc(Nc2cc3nc(-c4ccnc(N5C[C@H]6COC[C@H]6C5)c4)sc3cn2)nc(N2C[C@@H]3C[C@H]2CN3CCO)n1` [Example 452], the IC50 is 100 to 1000 nM in test [1] (Homo sapiens) and < 100 nM at HPK1 (setting [3]).

Consider `CO[C@@H]1CCN(c2cc(-c3nc4cc(Nc5cc(C)nc(N6C[C@@H]7C[C@H]6CN7CCO)n5)ncc4s3)ccn2)C1` [Example 453], for which the IC50 is 100 to 1000 nM in test [1] (Homo sapiens) and < 100 nM on HPK1 (setting [3]).

As to `CO[C@H]1CCN(c2cc(-c3nc4cc(Nc5cc(C)nc(N6C[C@@H]7C[C@H]6CN7CCO)n5)ncc4s3)ccn2)C1` [Example 454], the IC50 in test [1] (Homo sapiens) was 100 to 1000 nM; on HPK1 (setting [3]), < 100 nM.

`Cc1cc(Nc2cc3nc(-c4ccnc(N5CCOC[C@H]5C)c4)sc3cn2)nc(N2C[C@@H]3C[C@H]2CN3C)n1` [Example 455]: the IC50 is 100 to 1000 nM in test [1] (Homo sapiens) and < 100 nM on HPK1 (setting [3]).

On to `COC1CCN(c2cc(-c3nc4cc(Nc5cc(C)nc(N6C[C@@H]7C[C@H]6CN7C)n5)ncc4s3)ccn2)CC1` [Example 456], for which the IC50 was 1000 to 5000 nM in test [1] (Homo sapiens) and < 100 nM at HPK1 (setting [3]).

`Cc1cc(Nc2cc3nc(-c4ccnc(N5C[C@H]6COC[C@H]6C5)c4)sc3cn2)nc(N2C[C@@H]3C[C@H]2CN3C)n1` [Example 457]: the IC50 in test [1] (Homo sapiens) was 100 to 1000 nM; on HPK1 (setting [3]), < 100 nM.

In the case of `Cc1cc(Nc2cc3nc(-c4ccnc(N5CCOCC5)c4)sc3cn2)nc(N2C[C@@H]3C[C@H]2CN3CCO)n1` [Example 458], the IC50 was 100 to 1000 nM in test [1] (Homo sapiens) and < 100 nM at HPK1 (setting [3]).

Turning to `CN1C[C@@H]2C[C@H]1CN2c1nccc(Nc2cc3nc(-c4ccnc(N5CCOCC5)c4)sc3cn2)n1` [Example 460], the figures for the IC50 (in test [1]; on HPK1 (setting [2])) were 100 to 1000 nM and < 100 nM, respectively.

As to `CN1C[C@@H]2C[C@H]1CN2c1nccc(Nc2cc3nc(-c4ccnc(N5CC[C@@H](O)C5)c4)sc3cn2)n1` [Example 464], the IC50 in test [1] is 100 to 1000 nM; on HPK1 (setting [2]), < 100 nM.

Regarding `CCN1C[C@@H]2C[C@H]1CN2c1nc(C)cc(Nc2cc3nc(-c4cc(C)cc(N5C(=O)CC[C@H]5C)c4)sc3cn2)n1` [Example 466], the IC50 is 100 to 1000 nM in test [1] (Homo sapiens) and < 100 nM at HPK1 (setting [3]).

Consider `Cc1cc(Nc2cc3nc(-c4c(C)ccc(C(C)(C)O)c4C)sc3cn2)nc(N2C[C@@H]3C[C@H]2CN3C)n1` [Example 467], for which the IC50 (in test [1] (Homo sapiens); on HPK1 (setting [3])) was < 100 nM throughout.

Take `Cc1cc(Nc2cc3nc(-c4ncccc4OC(F)F)sc3cn2)nc(N2C[C@@H]3C[C@H]2CN3C)n1` [Example 468]: the IC50 was 100 to 1000 nM in test [1] (Homo sapiens) and < 100 nM on HPK1 (setting [3]).

As to `COc1cccnc1-c1nc2cc(Nc3cc(C)nc(N4C[C@@H]5C[C@H]4CN5C)n3)ncc2s1` [Example 469], the IC50 in test [1] (Homo sapiens) is 100 to 1000 nM; at HPK1 (setting [3]) it was < 100 nM.

Take `CCN1C[C@@H]2C[C@H]1CN2c1nc(C)cc(Nc2cc3nc(-c4cncc(N5CCC(F)CC5)c4)sc3cn2)n1` [Example 470]: the IC50 in test [1] (Homo sapiens) was 100 to 1000 nM; at HPK1 (setting [3]) it was < 100 nM.

Take `CCN1C[C@@H]2C[C@H]1CN2c1nc(C)cc(Nc2cc3nc(-c4cncc(N[C@H](C)c5ccccc5)c4)sc3cn2)n1` [Example 471]: the IC50 in test [1] (Homo sapiens) was 100 to 1000 nM; on HPK1 (setting [3]), < 100 nM.

Consider `CCN1C[C@@H]2C[C@H]1CN2c1nc(C)cc(Nc2cc3nc(-c4cncc(N5C[C@H]6COC[C@H]6C5)c4)sc3cn2)n1` [Example 472], for which the IC50 in test [1] (Homo sapiens) is 100 to 1000 nM; on HPK1 (setting [3]), < 100 nM.

In the case of `CCN1C[C@@H]2C[C@H]1CN2c1nc(C)cc(Nc2cc3nc(-c4ccnc(N5CCOC[C@H]5C(C)C)c4)sc3cn2)n1` [Example 474], the IC50 (in test [1] (Homo sapiens); on HPK1 (setting [3])) was < 100 nM throughout.

In the case of `CC[C@@H]1COCCN1c1cc(-c2nc3cc(Nc4cc(C)nc(N5C[C@@H]6C[C@H]5CN6CC)n4)ncc3s2)ccn1` [Example 475], the IC50 (in test [1] (Homo sapiens); on HPK1 (setting [3])) was < 100 nM in each case.

Turning to `Cc1cc(Nc2cc3nc(-c4cncc(N5CCOC[C@H]5C)c4)sc3cn2)nc(N2C[C@@H]3C[C@H]2CN3CCO)n1` [Example 476], the IC50 (in test [1] (Homo sapiens); at HPK1 (setting [3])) was < 100 nM each time.

As for `Cc1cc(Nc2cc3nc(-c4cncc(N5CCOCC5)c4)sc3cn2)nc(N2C[C@@H]3C[C@H]2CN3CCO)n1` [Example 477], the IC50 in test [1] (Homo sapiens) is 100 to 1000 nM; at HPK1 (setting [3]), < 100 nM.

For `Cc1cc(Nc2cc3nc(-c4ccnc(N5CCS(=O)(=O)CC5)c4)sc3cn2)nc(N2C[C@@H]3C[C@H]2CN3C)n1` [Example 478], the IC50 in test [1] (Homo sapiens) was 100 to 1000 nM; at HPK1 (setting [3]), < 100 nM.

As to `Cc1cc(Nc2cc3nc(-c4cccc(N5CC(F)C5)c4)sc3cn2)nc(N2C[C@@H]3C[C@H]2CN3C)n1` [Example 479], the IC50 in test [1] (Homo sapiens) is 100 to 1000 nM; at HPK1 (setting [3]), < 100 nM.

For `Cc1cc(Nc2cc3nc(-c4ccnc(C5CCOCC5)c4)sc3cn2)nc(N2C[C@@H]3C[C@H]2CN3C)n1` [Example 480], the IC50 in test [1] (Homo sapiens) is 100 to 1000 nM; at HPK1 (setting [3]), < 100 nM.

For the molecule `Cc1cc(Nc2cc3nc(-c4ccncc4O[C@H]4CCOC4)sc3cn2)nc(N2C[C@@H]3C[C@H]2CN3C)n1` [Example 481], the IC50 is 1000 to 5000 nM in test [1] (Homo sapiens) and < 100 nM on HPK1 (setting [3]).

Consider `Cc1cc(Nc2cc3nc(-c4ccnc(O[C@H]5CCOC5)c4)sc3cn2)nc(N2C[C@@H]3C[C@H]2CN3C)n1` [Example 482], for which the IC50 is 1000 to 5000 nM in test [1] (Homo sapiens) and < 100 nM on HPK1 (setting [3]).

As for `CCN1C[C@@H]2C[C@H]1CN2c1nc(C)cc(Nc2cc3nc(O[C@@H](C)c4ccccc4)sc3cn2)n1` [Example 483], the IC50 is 100 to 1000 nM in test [1] (Homo sapiens) and < 100 nM on HPK1 (setting [3]).

On to `CCN1C[C@@H]2C[C@H]1CN2c1nc(C)cc(Nc2cc3nc(Oc4cccnc4)sc3cn2)n1` [Example 484], for which the IC50 (in test [1] (Homo sapiens); at HPK1 (setting [3])) was < 100 nM in each case.

The values are drawn from patent US12649751B2 (Arcus Biosciences, Inc., priority 2022, dated 2026).
